Blank lines part the entries; values can stand above or below the compound they belong to.
How the values were obtained:
Type in all cases: biochemical
RET = biological target: T1, RET (Homo sapiens, UniProt P07949); assay: Inhibition of RET kinase activity, recombinant RET method (Kinase-Glo); settings: RET 2 μg/ml, poly-EY4 substrate, 20 μM ATP, two hours at 30° C.
T1 construct: purchased Upstate 14-570MG
Method in brief: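 Recombinant RET at 2 μg/ml in 20 mM MOPS/NaOH pH 7.0, 1 mM EDTA, 5% glycerol, 0.01% Brij35, 0.1% 2-mercaptoethanol, 1 mg/ml BSA; compounds 10 nM–30 μM final.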

Aurora-A (h) = biological target: T2, Aurora-A (h) (Homo sapiens, UniProt O14965); assay: Upstate kinase panel: Aurora-A
T2 construct: purchased Upstate
T2 sequence (O14965 1-403): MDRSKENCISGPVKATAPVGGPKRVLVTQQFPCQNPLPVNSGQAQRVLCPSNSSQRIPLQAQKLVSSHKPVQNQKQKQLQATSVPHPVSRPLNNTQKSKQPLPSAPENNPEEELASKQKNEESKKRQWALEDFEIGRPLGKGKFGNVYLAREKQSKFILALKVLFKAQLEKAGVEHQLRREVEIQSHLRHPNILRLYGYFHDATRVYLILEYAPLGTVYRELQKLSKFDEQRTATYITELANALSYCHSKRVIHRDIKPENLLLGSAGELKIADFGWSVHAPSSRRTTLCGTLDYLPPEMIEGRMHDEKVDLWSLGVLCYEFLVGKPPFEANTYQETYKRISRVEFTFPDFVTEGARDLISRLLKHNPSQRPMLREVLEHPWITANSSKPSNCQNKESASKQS
Method: (§1) These kinases are produced by Upstate and screened according to the respective protocols indicated by the supplier (http://www.upstate.com/features/kp_protocols.asp). Examples 1, 12, 166 and 238 were tested at a concentration of 20 μM, 10 μM, 1 μM and 1 μM respectively in the presence of 10 μM of ATP for examples 1 and 12 and at the concentrations of ATP shown in parentheses for examples 166 and 238. The results shown in Table VII correspond to percentage inhibition of the kinase tested in the presence of the compound, relative to a control effected without the compound.

c-RAF (h) = biological target: T3, c-RAF (h) (Homo sapiens, UniProt P04049, Y340D/Y341D); assay: Upstate kinase panel: c-RAF
T3 construct: purchased Upstate
T3 sequence (P04049 306-648 Y340D/Y341D limits assumed): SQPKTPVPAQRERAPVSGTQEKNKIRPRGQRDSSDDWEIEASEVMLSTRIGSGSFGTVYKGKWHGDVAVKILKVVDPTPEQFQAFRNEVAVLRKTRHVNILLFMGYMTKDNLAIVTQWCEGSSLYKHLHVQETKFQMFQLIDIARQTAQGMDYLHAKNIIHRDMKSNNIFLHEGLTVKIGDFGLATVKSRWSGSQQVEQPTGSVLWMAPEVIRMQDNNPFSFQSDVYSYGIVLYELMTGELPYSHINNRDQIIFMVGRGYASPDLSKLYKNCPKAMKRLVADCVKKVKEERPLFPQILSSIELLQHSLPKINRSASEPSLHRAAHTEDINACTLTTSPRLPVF
Method: as §1

cSRC (h) = biological target: T4, cSRC (h) (Homo sapiens, UniProt P12931); assay: Upstate kinase panel: cSRC
T4 construct: purchased Upstate
T4 sequence (P12931 whole entry): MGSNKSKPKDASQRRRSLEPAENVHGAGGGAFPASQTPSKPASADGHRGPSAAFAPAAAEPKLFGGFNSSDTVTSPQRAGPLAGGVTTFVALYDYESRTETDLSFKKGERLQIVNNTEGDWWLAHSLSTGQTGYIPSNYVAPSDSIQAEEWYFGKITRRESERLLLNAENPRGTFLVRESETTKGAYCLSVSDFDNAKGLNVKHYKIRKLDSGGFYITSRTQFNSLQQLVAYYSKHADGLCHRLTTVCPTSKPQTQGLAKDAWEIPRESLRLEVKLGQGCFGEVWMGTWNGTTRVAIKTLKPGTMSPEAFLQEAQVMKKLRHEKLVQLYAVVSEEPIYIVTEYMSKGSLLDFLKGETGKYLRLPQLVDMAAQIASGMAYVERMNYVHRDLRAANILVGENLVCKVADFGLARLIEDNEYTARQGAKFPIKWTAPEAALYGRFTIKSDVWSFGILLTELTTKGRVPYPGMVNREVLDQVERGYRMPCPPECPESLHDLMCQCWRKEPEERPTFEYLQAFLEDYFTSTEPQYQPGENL
Method: as §1

EGFR (h) = biological target: T5, EGFR (h) (Homo sapiens, UniProt P00533); assay: Upstate kinase panel: EGFR
T5 construct: purchased Upstate
Method: as §1

IKKβ (h) = biological target: T6, IKKβ (h) (Homo sapiens, UniProt O14920); assay: Upstate kinase panel: IKKβ
T6 construct: purchased Upstate
T6 sequence (O14920 1-756): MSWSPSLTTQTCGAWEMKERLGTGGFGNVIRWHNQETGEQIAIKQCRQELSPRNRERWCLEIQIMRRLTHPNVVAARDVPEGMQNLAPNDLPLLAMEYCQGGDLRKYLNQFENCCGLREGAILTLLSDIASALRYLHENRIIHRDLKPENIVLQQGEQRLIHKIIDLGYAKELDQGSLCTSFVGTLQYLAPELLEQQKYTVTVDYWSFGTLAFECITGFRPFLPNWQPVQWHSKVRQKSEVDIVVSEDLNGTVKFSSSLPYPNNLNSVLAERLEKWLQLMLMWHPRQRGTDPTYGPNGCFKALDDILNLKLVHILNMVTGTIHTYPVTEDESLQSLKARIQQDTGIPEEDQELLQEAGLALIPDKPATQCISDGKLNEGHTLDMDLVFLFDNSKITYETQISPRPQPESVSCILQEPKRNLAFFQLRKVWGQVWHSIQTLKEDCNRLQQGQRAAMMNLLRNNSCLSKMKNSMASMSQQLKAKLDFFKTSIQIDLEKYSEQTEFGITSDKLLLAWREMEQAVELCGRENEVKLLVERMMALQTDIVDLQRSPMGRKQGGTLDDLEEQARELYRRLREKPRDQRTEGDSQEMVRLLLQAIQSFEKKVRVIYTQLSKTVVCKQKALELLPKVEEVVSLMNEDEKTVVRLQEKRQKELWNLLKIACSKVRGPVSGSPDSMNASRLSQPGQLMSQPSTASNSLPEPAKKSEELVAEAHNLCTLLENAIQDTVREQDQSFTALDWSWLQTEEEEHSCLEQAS
Method: as §1

KDR (h) = biological target: T7, KDR (h) (Homo sapiens, UniProt P35968); assay: Upstate kinase panel: KDR
T7 construct: purchased Upstate
T7 sequence (P35968 20-1356): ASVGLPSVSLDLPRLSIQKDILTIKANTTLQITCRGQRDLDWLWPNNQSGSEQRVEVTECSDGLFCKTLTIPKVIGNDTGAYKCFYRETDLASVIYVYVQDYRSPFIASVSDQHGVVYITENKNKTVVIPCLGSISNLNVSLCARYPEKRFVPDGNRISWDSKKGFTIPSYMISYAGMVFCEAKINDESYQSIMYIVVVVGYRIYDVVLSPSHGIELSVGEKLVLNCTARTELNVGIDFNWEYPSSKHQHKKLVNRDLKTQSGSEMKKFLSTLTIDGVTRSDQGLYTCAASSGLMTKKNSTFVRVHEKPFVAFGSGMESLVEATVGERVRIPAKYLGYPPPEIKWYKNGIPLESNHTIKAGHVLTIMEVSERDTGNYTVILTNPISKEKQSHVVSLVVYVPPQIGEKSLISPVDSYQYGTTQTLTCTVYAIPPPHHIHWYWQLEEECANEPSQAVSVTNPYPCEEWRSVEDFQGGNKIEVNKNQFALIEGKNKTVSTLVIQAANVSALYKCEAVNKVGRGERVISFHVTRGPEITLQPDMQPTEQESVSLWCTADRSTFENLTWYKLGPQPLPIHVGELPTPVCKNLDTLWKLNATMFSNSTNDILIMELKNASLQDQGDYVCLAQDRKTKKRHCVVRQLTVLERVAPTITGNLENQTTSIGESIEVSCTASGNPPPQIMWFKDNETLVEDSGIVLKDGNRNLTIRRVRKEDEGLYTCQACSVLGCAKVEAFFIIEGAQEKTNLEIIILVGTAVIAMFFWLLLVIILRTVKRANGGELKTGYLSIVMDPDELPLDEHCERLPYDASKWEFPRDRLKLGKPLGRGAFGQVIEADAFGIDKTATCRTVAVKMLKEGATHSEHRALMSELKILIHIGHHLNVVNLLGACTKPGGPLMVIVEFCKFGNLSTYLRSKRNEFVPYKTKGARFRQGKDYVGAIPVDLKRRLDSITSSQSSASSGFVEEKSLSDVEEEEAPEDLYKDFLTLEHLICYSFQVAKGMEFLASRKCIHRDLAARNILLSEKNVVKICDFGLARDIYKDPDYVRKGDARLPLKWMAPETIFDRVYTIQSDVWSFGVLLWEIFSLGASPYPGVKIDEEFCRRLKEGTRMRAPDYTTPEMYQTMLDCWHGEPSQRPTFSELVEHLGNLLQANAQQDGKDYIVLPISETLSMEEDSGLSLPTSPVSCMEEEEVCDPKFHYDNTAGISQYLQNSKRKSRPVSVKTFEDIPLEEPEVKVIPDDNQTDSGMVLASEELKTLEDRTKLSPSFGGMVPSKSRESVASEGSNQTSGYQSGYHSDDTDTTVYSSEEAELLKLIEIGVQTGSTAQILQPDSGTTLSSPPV
Method: as §1

MAPK2 (h) = biological target: T8, MAPK2 (h) (Homo sapiens, UniProt P28482); assay: Upstate kinase panel: MAPK2
T8 construct: purchased Upstate
T8 sequence (P28482 whole entry): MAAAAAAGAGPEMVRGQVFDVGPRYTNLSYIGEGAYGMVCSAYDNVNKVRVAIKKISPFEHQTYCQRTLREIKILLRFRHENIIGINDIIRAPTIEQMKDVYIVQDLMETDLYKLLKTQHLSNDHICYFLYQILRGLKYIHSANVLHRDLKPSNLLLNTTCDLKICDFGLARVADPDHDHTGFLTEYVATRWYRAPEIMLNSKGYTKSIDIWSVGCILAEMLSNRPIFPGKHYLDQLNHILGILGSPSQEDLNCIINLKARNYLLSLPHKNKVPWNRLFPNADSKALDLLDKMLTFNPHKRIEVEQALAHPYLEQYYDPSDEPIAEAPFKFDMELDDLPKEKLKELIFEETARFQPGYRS
Method: as §1

ROCK-II (h) = biological target: T9, ROCK-II (h) (Homo sapiens, UniProt O75116); assay: Upstate kinase panel: ROCK-II
T9 construct: purchased Upstate
T9 sequence (O75116 whole entry): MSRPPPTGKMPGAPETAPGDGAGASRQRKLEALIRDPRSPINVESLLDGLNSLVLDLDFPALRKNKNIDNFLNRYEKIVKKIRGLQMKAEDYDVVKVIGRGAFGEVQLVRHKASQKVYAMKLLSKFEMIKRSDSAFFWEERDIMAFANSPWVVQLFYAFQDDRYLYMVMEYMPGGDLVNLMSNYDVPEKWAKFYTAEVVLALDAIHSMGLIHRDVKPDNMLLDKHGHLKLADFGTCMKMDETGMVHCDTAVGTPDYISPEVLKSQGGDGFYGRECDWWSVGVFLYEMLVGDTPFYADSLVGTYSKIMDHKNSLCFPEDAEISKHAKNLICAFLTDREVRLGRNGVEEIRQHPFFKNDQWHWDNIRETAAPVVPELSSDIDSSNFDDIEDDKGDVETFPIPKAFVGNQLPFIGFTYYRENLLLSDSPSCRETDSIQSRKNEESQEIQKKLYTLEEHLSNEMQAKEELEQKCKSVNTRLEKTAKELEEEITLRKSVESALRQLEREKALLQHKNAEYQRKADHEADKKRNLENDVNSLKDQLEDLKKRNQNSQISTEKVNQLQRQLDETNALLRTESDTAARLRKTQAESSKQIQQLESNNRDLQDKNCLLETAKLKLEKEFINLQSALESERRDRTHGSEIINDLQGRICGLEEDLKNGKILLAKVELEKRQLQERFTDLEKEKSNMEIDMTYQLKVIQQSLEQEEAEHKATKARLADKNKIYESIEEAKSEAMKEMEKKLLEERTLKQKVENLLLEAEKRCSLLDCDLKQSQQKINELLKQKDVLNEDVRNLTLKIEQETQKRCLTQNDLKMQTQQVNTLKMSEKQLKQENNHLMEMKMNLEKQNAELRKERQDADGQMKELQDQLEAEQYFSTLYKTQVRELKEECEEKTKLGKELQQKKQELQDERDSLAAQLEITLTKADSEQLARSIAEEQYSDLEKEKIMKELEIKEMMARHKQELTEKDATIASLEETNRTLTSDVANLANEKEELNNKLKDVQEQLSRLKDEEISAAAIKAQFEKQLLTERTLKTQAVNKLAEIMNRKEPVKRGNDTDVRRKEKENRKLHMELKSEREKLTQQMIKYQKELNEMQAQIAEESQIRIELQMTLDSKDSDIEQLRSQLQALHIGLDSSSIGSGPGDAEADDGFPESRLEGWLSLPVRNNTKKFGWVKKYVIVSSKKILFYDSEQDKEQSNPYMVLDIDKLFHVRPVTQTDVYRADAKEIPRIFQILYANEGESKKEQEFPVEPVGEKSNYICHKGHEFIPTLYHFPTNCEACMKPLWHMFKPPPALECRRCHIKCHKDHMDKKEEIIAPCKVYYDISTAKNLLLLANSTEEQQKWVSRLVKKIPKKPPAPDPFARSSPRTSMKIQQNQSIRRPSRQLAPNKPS
Method: as §1

[1] = compound 1 μM, ATP (15), read-out: % inhibition at 1 μMol
[2] = compound 1 μM, ATP (10), read-out: % inhibition at 1 μMol
[3] = compound 20 μM, 10 μM ATP, read-out: % inhibition at 20 μMol
[4] = compound 10 μM, 10 μM ATP, read-out: % inhibition at 10 μMol

T1 sequence (P07949 29-1114): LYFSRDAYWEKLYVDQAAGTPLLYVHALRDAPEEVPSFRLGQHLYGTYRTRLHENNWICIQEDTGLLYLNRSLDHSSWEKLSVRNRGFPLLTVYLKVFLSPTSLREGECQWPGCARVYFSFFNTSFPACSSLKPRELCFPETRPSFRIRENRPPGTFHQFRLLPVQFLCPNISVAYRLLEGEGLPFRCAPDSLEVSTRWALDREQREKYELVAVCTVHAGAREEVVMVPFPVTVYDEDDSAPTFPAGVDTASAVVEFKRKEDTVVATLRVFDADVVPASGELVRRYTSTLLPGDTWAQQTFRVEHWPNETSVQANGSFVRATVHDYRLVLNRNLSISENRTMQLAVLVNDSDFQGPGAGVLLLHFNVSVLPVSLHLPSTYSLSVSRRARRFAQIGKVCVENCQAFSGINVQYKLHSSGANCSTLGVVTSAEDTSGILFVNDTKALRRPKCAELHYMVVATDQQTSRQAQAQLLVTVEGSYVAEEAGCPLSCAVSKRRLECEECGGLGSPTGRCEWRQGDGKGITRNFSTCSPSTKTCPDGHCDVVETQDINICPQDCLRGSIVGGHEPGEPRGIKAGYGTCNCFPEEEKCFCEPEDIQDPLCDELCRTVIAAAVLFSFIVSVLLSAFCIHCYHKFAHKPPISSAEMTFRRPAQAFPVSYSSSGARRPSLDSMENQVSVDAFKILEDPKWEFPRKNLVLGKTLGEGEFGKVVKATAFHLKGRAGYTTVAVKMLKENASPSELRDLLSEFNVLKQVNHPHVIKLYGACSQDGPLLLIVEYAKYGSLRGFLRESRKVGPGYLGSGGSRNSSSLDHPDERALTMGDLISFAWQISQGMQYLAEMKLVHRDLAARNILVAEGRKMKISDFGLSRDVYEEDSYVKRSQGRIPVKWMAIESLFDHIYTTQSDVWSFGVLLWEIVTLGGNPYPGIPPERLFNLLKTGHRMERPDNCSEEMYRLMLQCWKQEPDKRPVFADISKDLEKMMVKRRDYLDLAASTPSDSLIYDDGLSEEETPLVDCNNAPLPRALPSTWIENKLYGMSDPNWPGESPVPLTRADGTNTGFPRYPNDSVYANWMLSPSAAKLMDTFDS

IC50 (RET): 100 to 1000 nM
inhibition at 1 µM (Aurora-A (h); [1]): 24%
inhibition at 1 µM (c-RAF (h); compound 1 μM, ATP (45), read-out: % inhibition at 1 μMol): 3%
inhibition at 1 µM (cSRC (h); compound 1 μM, ATP (200), read-out: % inhibition at 1 μMol): 7%
inhibition at 1 µM (EGFR (h); [2]): 3%
inhibition at 1 µM (IKKβ (h); [2]): 0%
inhibition at 1 µM (KDR (h); compound 1 μM, ATP (90), read-out: % inhibition at 1 μMol): 21%
inhibition at 1 µM (MAPK2 (h); compound 1 μM, ATP (155), read-out: % inhibition at 1 μMol): 0%
inhibition at 1 µM (ROCK-II (h); [1]): 5%
SMILES: CCOC(=O)c1c[nH]c2c(=O)[nH]c3ccc(-c4cccc(S(C)(=O)=O)c4)cc3c12 [Compound 238, 8-(3-Methanesulfonyl-phenyl)-4-oxo-4,5-dihydro-3H-pyrrolo[2,3-c]quinoline-1-ethyl carboxylate]

IC50 (RET): 1000 to 10000 nM
inhibition at 20 µM (Aurora-A (h); [3]): 16%
inhibition at 20 µM (c-RAF (h); [3]): 17%
inhibition at 20 µM (cSRC (h); [3]): 86%
inhibition at 20 µM (EGFR (h); [3]): 19%
inhibition at 20 µM (IKKβ (h); [3]): 22%
inhibition at 20 µM (KDR (h); [3]): 100%
inhibition at 20 µM (MAPK2 (h); [3]): 1%
inhibition at 20 µM (ROCK-II (h); [3]): 8%
SMILES: CCOC(=O)c1c[nH]c2c(=O)[nH]c3ccccc3c12 [Compound 1, 4-Oxo-4,5-dihydro-3H-pyrrolo[2,3-c]quinoline-1-ethyl carboxylate]

IC50 (RET): < 100 nM
inhibition at 10 µM (Aurora-A (h); [4]): 94%
inhibition at 10 µM (c-RAF (h); [4]): 79%
inhibition at 10 µM (cSRC (h); [4]): 91%
inhibition at 10 µM (EGFR (h); [4]): 13%
inhibition at 10 µM (IKKβ (h); [4]): 0%
inhibition at 10 µM (KDR (h); [4]): 69%
inhibition at 10 µM (MAPK2 (h); [4]): 3%
inhibition at 10 µM (ROCK-II (h); [4]): 17%
SMILES: CCOC(=O)c1c[nH]c2c(=O)[nH]c3ccc(S(=O)(=O)Nc4ccc(F)cc4)cc3c12 [Compound 12, 8-(4-Fluorophenylsulfamoyl)-4-oxo-4,5-dihydro-3H-pyrrolo[2,3-c]quinoline-1-ethyl carboxylate]

Source: patent US8426437B2, “Pyrroloquinoline derivatives and their use as protein kinases inhibitors” (Pierre Fabre Medicament, priority 2005, dated 2013)
